Laboratory results published in patent US9322066B2, “Predictors for cancer treatment” (priority 2011, dated 2016).

Test system: relapsed or refractory, rituximab-naive or -sensitive follicular B-cell NHL
Test: Duration of response, Vc-R vs rituximab study, by biomarker
Type: in vivo, human
Description: Non-Hodgkin lymphoma (NHL) encompasses several unique malignant lymphoid disease entities that vary in clinical behavior, morphologic appearance, immunologic, and molecular phenotype. […] A randomized, open-label, active-controlled, multicenter, multinational, prospective study to compare the efficacy and safety of the combination of bortezomib and rituximab (Vc-R) to single-agent rituximab in subjects who have relapsed or refractory, rituximab-naive or -sensitive follicular B-cell NHL was performed.
Subjects were centrally randomized to Treatment Groups A (Vc-R) or B (rituximab) in a 1:1 ratio taking into account the following stratification factors: • Follicular Lymphoma International Prognostic Index (FLIPI) score (low [0 or 1 factor], intermediate [2 factors], high [≧3 factors]); • Prior rituximab therapy (yes, no); • Time since last dose of anti-lymphoma therapy (≦1 year, >1 year); • Region (United States/Canada, European Union, Rest of World).
The following clinical endpoints were included in the analysis within each treatment group and an overall comparison was made with the biomarker-related endpoints: Progression-free survival, defined as the interval between the date of randomization and the date of progressive disease (PD) or death, whichever is first reported in the ITT population; overall survival; overall response rate (complete response [CR]+CR unconfirmed [CRu]+partial response [PR]); overall CR rate (CR+CRu); duration of response; time to next anti-lymphoma therapy; and treatment free interval.
Comparison of the response rates between the treatment groups was conducted using the Fishers Exact Test. Duration of response, time to response, and time to clinical relapse were analyzed descriptively, where appropriate, and the biomarker subset was compared (if appropriate, determined as per the initial analysis) to the overall clinical cohort, by treatment group and overall. An exploratory estimate of the response rates in each treatment group was presented with 2-sided 95% confidence intervals. The number and percentage of subjects falling into each response category was descriptively tabulated.

[1] = 20S % NUCLEAR STAINING: 30-50, Prior Rituximab Therapy
[2] = 20S INTENSITY CYTOPLASMIC SIGNAL: ≦2+, Intermediate FLIPI Score
[3] = 20S INTENSITY CYTOPLASMIC SIGNAL: ≧3+, Intermediate FLIPI Score
[4] = 20S INTENSITY CYTOPLASMIC SIGNAL: ≧3+, No Prior Rituximab Therapy
[5] = 20S INTENSITY CYTOPLASMIC SIGNAL: ≧3+, ≦65 years old
[6] = BCL2/ A43G: MND, Ann Arbor Stage IV
[7] = BCL2/ E29K: MND, Ann Arbor Stage IV
[8] = BCL2/ P46L: MD, >1 year since last anti- lymphoma treatment
[9] = BCL2/ P59L: MD, 1 Prior Line of Therapy
[10] = BCL2/ P59L: MD, >1 year since last anti- lymphoma treatment
[11] = BCL2/ P59L: MD, Prior Rituximab Therapy
[12] = BCL2/ R106H: MND, Ann Arbor Stage IV
[13] = CD68 OVERALL POSITIVE: 0-25, High FLIPI Score
[14] = CD68 OVERALL POSITIVE: 0-25, ≦1 year since last anti-lymphoma treatment
[15] = CD68 OVERALL POSITIVE: 51-75, Male
[16] = CD68 OVERALL POSITIVE: >75, Male
[17] = CD68 POSITIVE FOLLICULAR: 0-25, Female
[18] = CD68 POSITIVE PERIFOLLICULAR: >75, Male
[19] = NOTCH/ P2513L: MND, >65 years old
[20] = NOTCH/ X28INS: MND, Ann Arbor Stage IV
[21] = NOTCH/ X28INS: MND, ≦65 years old
[22] = P27 % NUCLEI POSITIVE: 60-70, High FLIPI Score
[23] = P27 % NUCLEI POSITIVE: 60-70, Male
[24] = P65 INTENSITY CYTOPLASMIC SIGNAL: ≦1+, Ann Arbor Stage III

rituximab
Duration of response Evt/N [1]: 9/13 | Duration of response Median [1]: 356 | Duration of response Evt/N [2]: 9/25 | Duration of response Median [2]: 554 | Duration of response Evt/N [3]: 17/25 | Duration of response Median [3]: 352 | Duration of response Evt/N [4]: 22/32 | Duration of response Median [4]: 427 | Duration of response Evt/N [5]: 28/39 | Duration of response Median [5]: 417 | Duration of response Evt/N [6]: 23/28 | Duration of response Median [6]: 353 | Duration of response Evt/N [7]: 21/26 | Duration of response Median [7]: 344 | Duration of response Evt/N (BCL2/ E29K: MND, ≦65 years old): 32/49 | Duration of response Median (BCL2/ E29K: MND, ≦65 years old): 353 | Duration of response Evt/N [8]: 5/5 | Duration of response Median [8]: 356 | Duration of response Evt/N [9]: 2/2 | Duration of response Median [9]: 345 | Duration of response Evt/N [10]: 3/4 | Duration of response Median [10]: 330 | Duration of response Evt/N (BCL2/ P59L: MD, No Subgroup): 4/5 | Duration of response Median (BCL2/ P59L: MD, No Subgroup): 343 | Duration of response Evt/N [11]: 3/3 | Duration of response Median [11]: 330 | Duration of response Evt/N (BCL2/ P59L: MD, White): 4/5 | Duration of response Median (BCL2/ P59L: MD, White): 343 | Duration of response Evt/N [12]: 21/26 | Duration of response Median [12]: 352 | Duration of response Evt/N [13]: 7/11 | Duration of response Median [13]: 423 | Duration of response Evt/N [14]: 5/7 | Duration of response Median [14]: 354 | Duration of response Evt/N [15]: 5/7 | Duration of response Median [15]: 279 | Duration of response Evt/N [16]: 3/3 | Duration of response Median [16]: 284 | Duration of response Evt/N [17]: 12/20 | Duration of response Median [17]: 354 | Duration of response Evt/N [18]: 3/3 | Duration of response Median [18]: 284 | Duration of response Evt/N [19]: 10/23 | Duration of response Median [19]: 948 | Duration of response Evt/N [20]: 26/31 | Duration of response Median [20]: 353 | Duration of response Evt/N [21]: 44/64 | Duration of response Median [21]: 369 | Duration of response Evt/N [22]: 7/9 | Duration of response Median [22]: 337 | Duration of response Evt/N [23]: 5/6 | Duration of response Median [23]: 281 | Duration of response Evt/N [24]: 2/4 | Duration of response Median [24]: 173 | Duration of response Evt/N (PSMB5/R24C: C/C, Ann Arbor Stage II): 4/18 | Duration of response Evt/N (PSMB9/R60H: A/G, Male): 10/11 | Duration of response Median (PSMB9/R60H: A/G, Male): 211
